# According to patent US20210023223A1, “HYDROCARBON / LIPID - CAROTENOID COMPLEXES” (IP SCIENCE LIMITED, priority 2018, published 2021):
# Columns and labels:
# [1] = Size of lipid droplets of dairy butter, microscopy; format: physicochemical
# From the text: (§1) For measurement of lipid droplets and fat globules and quantification of their size binocular microscope Olympus BX41 was used with Cell^B software for morphometric analysis. All parameters were collected from 10 randomly selected microscopic fields at ×1000).
# Incorporation of lycopene into the butter led to a significant increase in the size of its lipid droplets and many reached more than 100 or even 300 fold of their diameter. This effect was dose-dependent, and can already be observed for less than 1 molecule of lycopene to 224,000 molecules of butter triglycerides.
# [2] = Size of pork fat globules, microscopy; format: physicochemical; conditions: maximum doses
# Description: as §1
# When carotenoids were added to animal fat, with a relatively high percentage of saturated fatty acid, a similar trend in increased fat globules was observed, although to a lesser degree. The maximum doses of lycopene or astaxanthin caused a similar increase in the pork fat globules diameter, only 50%, FIG. 2 and table 3.
# [3] = Size of Canola oil lipid droplets, microscopy; format: physicochemical
# From the text: as §1
# (§2) The effect of adding lycopene into another polyunsaturated oil, in this case cod liver oil, was a dose-dependent increase in the size of its lipid structures. For Olive and Sunflower oils this increase in diameter caused by lycopene could reach 20 fold, for Canola and Cod Liver oil it was 50 or 100 fold.
# [4] = Size of Cod Liver oil lipid structures, microscopy; format: physicochemical
# From the text: as §1, §2
# [5] = Spreadability of oil drops on the surface of water; format: physicochemical
# Description: (§3) 1. A petri dish of 13.5 cm diameter was filled to the brim with unheated water.
# (§4) 2. 0.3 ml of Olive or Sunflower oil was dropped onto the surface from a standardised height (30 cm) using a 1 ml pipette.
# (§5) 3. The resultant droplets were photographed and measured 30 sec after impact.
# (§6) 4. For increased reliability, the procedure was repeated 5 times.
# (§7) 5. Steps 1-4 were then repeated for Olive and Sunflower oils with or without carotenoids in different concentrations.
# [6] = Spreadability of oil drops on the surface of water; format: physicochemical; remark: listed apart in the source
# Description: as §3, §4, §5, §6, §7
# Melting time at 37° C. = format: physicochemical
# Description: Approximately 20 mg of butter, or pork fat, or beef fat, or cocoa butter, or chocolate, with or without certain concentrations of carotenoids, were placed on the surface of the laboratory slides and incubated at 37° C. in a laboratory incubator (TLK39).
# Results presented in FIG. 15 show three different carotenoids—lycopene, lutein and astaxanthin, can reduce, albeit to a different degree, the melting time of dark chocolate regardless of its tempering protocols: Protocol I—28° C., Protocol II—29° C., Protocol III—30° C.
# [7] = Heating olive oil-in-water emulsions; format: physicochemical
# [8] = tested on: B10.MLM cells (alveolar macrophages); assay: Transmission electron microscopy of cells; format: cell-based; conditions: 48 hours
# Description: B10.MLM cells were cultured with or without lycopene for 48 hours and then harvested from the plates with trypsin-versene solution. Cell pellets obtained by centrifugation for 10 min at 1500 r.p.m. (Rotanta 460R; Hettich) were fixed with Ito-Karnovsky fixative solution, followed by post-fixation with OsO4 and treatment with aqueous uranyl acetate to provide contrast. The specimens were subsequently dehydrated in an ascending series of alcohol concentrations (50, 70, 96 and 100% ethanol), infiltrated with a 1:1 (v/v) mixture of LR White resin and 100% ethanol for 1 h and in a pure resin for 12 h at 4° C. Resin polymerization was performed at 56° C. for 24 h. Ultrathin sections were prepared, treated with a lead solution to provide contrast (Reynolds, 1963) and analysed using a JEOL 100B transmission electron microscope with an accelerating voltage of 80 kV (Jeol, Japan).
# [9] = tested on: moderately obese volunteers; assay: Inflammatory Oxidative Damage (IOD) of serum; format: in vivo, human
# Description: (§8) Study Design. The total number of volunteers recruited to take part in the study was 18 (9 male and 9 female subjects) Caucasians 40-67 years old.
# (§9) Products Formulated with Lycopene was developed and made by Lycotec Ltd. (Cambridge, United Kingdom). The daily dose was 1 capsule of 20 mg of lycopene, and it was taken with the main meal of the day. The period of administration was 1 month.
# Serum samples were incubated overnight in 0.05 M PBS acetate buffer (pH 5.6) to imitate the type of oxidative damage, which occurs during the release of lysosomes following neutrophil degranulation. The following morning the reaction was stopped using trichloroacetic acid. The concentration of the end products such as malonic dialdehyde (MDA), and other possible thiobarbituric acid reactive substances (TBARS), was then measured by colorimetry using reagents and kits from Cayman Chemical (MC, USA).
# [10] = tested on: moderately obese volunteers; assay: Lipoprotein O2 by catalymetry; format: in vivo, human
# Description: as §8, §9
# LDL-Px and Lipoprotein O2. Activity of serum LDL peroxidase proteins, which include IgG with superoxide dismutase activity, was measured as described previously. Plasma oxygen, which carried by blood lipids/lipoproteins was measured by catalymetry.
# [11] = tested on: moderately obese volunteers; assay: Tissue oxygenation StO2 by NIRS, 20 mg lycopene study; format: in vivo, human
# Description: as §8, §9
# Thenar eminence and forearm muscles of the patients were used as a tissue target for the assessment of oxygen saturation, StO2, or combined level of oxygenated haemoglobin and myoglobin. StO2 was assessed by continuous wavelength near-infrared spectroscopy, NIRS, with wide-gap second-derivative (In Spectra, Hutchinson Technology, MN, USA). The measurements were taken at different time points.
# The recording was initiated after 15 min of rest in a supine position before occlusion of the brachial artery. It was then continued during stagnant ischemia induced by rapidly inflating the cuff to 50 mm Hg above systolic BP. The ischemia lasted for 3 min, and the recording period lasted for another 5 min after that until StO2 was stabilized. The area under the hyperaemic curve, AUC, of the recorded signal for the settling time in the post-occlusion period was then calculated as described earlier in % O2/minute.
# [12] = Acid induced degradation at pH 2.5, gas chromatography; format: physicochemical; conditions: lycopene 1 mg or 3 mg per 1 gram of DHA; 37° C.
# [13] = 1 molecule of lycopene within about 120,000 molecules of oil lipids
# [14] = after 20 mg lycopene daily for one month
compound,measurement,setting,value
CC(C)=CCC/C(C)=C/C=C/C(C)=C/C=C/C(C)=C/C=C/C=C(C)/C=C/C=C(C)/C=C/C=C(\C)CCC=C(C)C [Lycopene],"Size of butter lipid droplets, Mean",[1]; lycopene dose 0.1 per 30 g of butter,34.32 μm
same,"Size of butter lipid droplets, Mean",[1]; lycopene dose 0.5 per 30 g of butter,60.39 μm
same,"Size of butter lipid droplets, Mean",[1]; lycopene dose 1.0 per 30 g of butter,92.35 μm
same,"Size of butter lipid droplets, Mean",[1]; lycopene dose 3.5 per 30 g of butter,90.18 μm
same,"Size of butter lipid droplets, Mean",[1]; lycopene dose 7.0 per 30 g of butter,178.95 μm
same,"Size of butter lipid droplets, Mean",[1]; lycopene dose 10.0 per 30 g of butter,141.17 μm
same,Increase in the size of butter lipid droplets (diameter),"[1]; many droplets, 'more than 100 or even 300 fold'",more than 100 fold
same,Increase in the pork fat globules diameter,[2],50%
same,Increase in lipid droplet diameter,[3],50 fold
same,Increase in lipid droplet diameter,[4],100 fold
same,Diameter of spread lipid drops relative to intact oil,[5]; [13],6-8 fold
same,Increase of spreadability on the surface of the water,[5]; olive oil,11 fold
same,Diameter of spread lipid drops relative to intact oil,[6]; [13],6-8 fold
same,Increase of spreadability on the surface of the water,[6]; sunflower oil,23 fold
same,Melting time of dark chocolate,Melting time at 37° C.,8 min
same,Rate of heating of olive oil emulsion in water in the first 3 minutes,"[7]; 50%:50%, 1 molecule lycopene to 67,000 or astaxanthin to 71,000 fatty acids, control 10° C.",18 °C
same,Maximum temperature the emulsion could reach,"[7]; water to olive oil 75%:25%, control 62° C.",100 °C
same,Mitochondrial structures,[8],significantly increased both in size and their numbers
same,IOD,[9]; [14],60 ± 5.8 μM MDA
same,IOD,"[9]; before, n = 18",107 ± 11.6 μM MDA
same,Lipoprotein O2,[10]; [14],3.44 ± 0.27 µM
same,Lipoprotein O2,"[10]; before, n = 18",2.94 ± 0.25 µM
same,StO2,[11]; [14],80.4 ± 5.3^ AUC mm
same,StO2,"[11]; before, n = 18",64.1 ± 4.9^ AUC mm
same,Degradation of DHA at pH2.5,[12],completely prevented
